Data published in article PMC11605156, “Triterpenoids from Ganoderma lucidum inhibit cytochrome P450 enzymes interfering with the metabolic process of specific clinical drugs” (Frontiers in Pharmacology, 2024).

Tests used:
CYP2A6 = target: T1, CYP2A6 (Homo sapiens, UniProt P11509); assay: CYP2A6 inhibition, coumarin probe in human liver microsomes; conditions: human, human liver microsomes, pH 7.4, probe coumarin 2 μM, Residual activity (%) CYP2A6, HLM 0.5 mg/mL
T1 sequence (P11509 1-494): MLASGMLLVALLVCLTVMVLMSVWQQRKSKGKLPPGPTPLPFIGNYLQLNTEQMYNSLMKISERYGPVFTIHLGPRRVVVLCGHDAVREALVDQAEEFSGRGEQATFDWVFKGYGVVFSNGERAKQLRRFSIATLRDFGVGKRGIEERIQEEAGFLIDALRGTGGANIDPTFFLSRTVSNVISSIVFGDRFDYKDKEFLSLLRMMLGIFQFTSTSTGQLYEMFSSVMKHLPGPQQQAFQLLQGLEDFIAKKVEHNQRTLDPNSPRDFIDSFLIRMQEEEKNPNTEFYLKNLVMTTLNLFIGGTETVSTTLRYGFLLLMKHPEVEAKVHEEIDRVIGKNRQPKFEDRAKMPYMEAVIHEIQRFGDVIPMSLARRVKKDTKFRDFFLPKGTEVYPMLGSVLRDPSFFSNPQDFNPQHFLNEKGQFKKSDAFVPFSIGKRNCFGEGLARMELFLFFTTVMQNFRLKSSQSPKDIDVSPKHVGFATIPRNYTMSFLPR
Experimental: (§1) The total volume of the in vitro metabolic incubation system is 200 μL. The probe substrate concentration in the system is shown in Supplementary Table S1. […] The reaction sample was preheated in a constant temperature mixer at 37°C. Then NADP^+ was added to the system to initiate the reaction. The reaction time is 30 min, and 100 μL acetonitrile will be added on time to quickly terminate the reaction, followed by centrifugation at 4°C and 20,000 g for 20 min. The supernatant was analyzed using liquid chromatography tandem mass spectrometry (LC-MS/MS), and the activity of CYP enzymes was evaluated by the generation of probe metabolites. The mass spectrometry information of probe substrates is shown in Supplementary Table S3.
(§2) The isolated triterpenoids (1–66) were used to establish a compounds library. The inhibitory effects of 66 triterpenoids from G. lucidum on seven subtypes of CYP enzymes (CYP1A2, 2A6, 2D6, 2B6, 2C9, 2C19, 3A4) were evaluated followed the above-mentioned experimental procedures.
(§3) Table S1. The information of probes for CYPs activity assay

CYP3A4 = CYP3A4 (Homo sapiens, UniProt P08684); assay: CYP3A4 inhibition, probe/drug metabolism in human liver microsomes
Experimental: as §1, §2
(§4) For 16 clinical drugs metabolized by CYP enzymes, potential DDI studies were conducted on triterpenoids (6, 25) of G. lucidum, and IC50 values were measured.
(§5) Clinical drugs: Phenacetin, melatonin, clozapine and riluzole are metabolized by CYP1A2. Bupropion, artemisinin, efavirenz and sertraline are metabolized by CYP2B6. Diclofenac, valsartan, glimepiride and glibenclamide are metabolized by CYP2C9. Midazolam, imatinib, simvastatin and diltiazem are metabolized by CYP3A4.
as §3
(§6) Table S2. Information of clinical drugs

CYP3A4, CYP2B6, CYP2C9 = assay: in vitro; type: in vitro ADME; conditions: human
Experimental: Bupropion, artemisinin, efavirenz and sertraline are metabolized by CYP2B6. Diclofenac, valsartan, glimepiride and glibenclamide are metabolized by CYP2C9. Midazolam, imatinib, simvastatin and diltiazem are metabolized by CYP3A4.
as §6
CYP subtype Drugs Metabolite Concentration Incubation time
CYP1A2 Melatonin 6-hydroxyl-melatonin 5 μM 30 min
Clozaril Demethyl-clozaril 10 μM 20 min
Riluzole Hydroxy-riluzole 5 μM 60 min
Phenacetin Deacetyl-phenacetin 40 μM 30 min
CYP2B6 Bupropion 4'-hydroxyl-bupropion 75 μM 30 min
Artemisinin Dihydroartemisinin 10 μM 30 min
Sertraline Demethyl-sertraline 5 μM 30 min
Efavirenz 8-hydroxyl-efavirenz 20 μM 30 min
CYP2C9 Diclofenac 4'-hydroxyl-diclofenac 4 μM 30 min
Valsartan 4-hydroxyl-valsartan 30 μM 30 min
Glimepiride Hydroxyl-glimepiride 50 μM 30 min
Glibenclamide Hydroxyl-glibenclamide 50 μM 30 min
CYP3A4 Midazolam 1'-hydroxyl-midazolam 5 μM 30 min
Simvastatin 6'-β-hydroxyl-simvastatin 10 μM 30 min
Diltiazem Demethyl-diltiazem 10 μM 30 min
Imatinib Demethyl-imatinib 5 μM 30 min

CYP2D6 = CYP2D6 (Homo sapiens, UniProt P10635); assay: CYP2D6 inhibition, dextromethorphan probe in human liver microsomes; conditions: human, human liver microsomes, pH 7.4, probe dextromethorphan 5 μM, Residual activity (%) CYP2D6, HLM 0.5 mg/mL
Experimental: as §1, §2, §3

CYP2C9 = CYP2C9 (Homo sapiens, UniProt P11712); assay: CYP2C9 inhibition, probe/drug metabolism in human liver microsomes
Experimental: as §1, §2, §4, §5, §3, §6

CYP2B6 = target: T2, CYP2B6 (Homo sapiens, UniProt P20813); assay: CYP2B6 inhibition, probe/drug metabolism in human liver microsomes
T2 sequence (P20813 1-491): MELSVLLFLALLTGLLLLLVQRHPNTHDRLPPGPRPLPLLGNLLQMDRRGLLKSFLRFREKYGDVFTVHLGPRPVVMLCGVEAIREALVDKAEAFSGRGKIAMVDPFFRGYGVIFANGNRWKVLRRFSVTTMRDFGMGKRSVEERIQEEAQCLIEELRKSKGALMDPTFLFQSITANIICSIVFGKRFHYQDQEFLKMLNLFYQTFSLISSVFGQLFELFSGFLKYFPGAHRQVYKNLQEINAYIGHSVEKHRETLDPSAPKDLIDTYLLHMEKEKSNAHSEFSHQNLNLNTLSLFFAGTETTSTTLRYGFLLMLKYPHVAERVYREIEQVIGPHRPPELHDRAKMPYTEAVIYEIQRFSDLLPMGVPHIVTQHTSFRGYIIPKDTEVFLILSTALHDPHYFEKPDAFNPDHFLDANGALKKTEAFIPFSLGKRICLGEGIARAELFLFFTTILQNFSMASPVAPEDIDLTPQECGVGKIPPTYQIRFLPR
Experimental: as §1, §2, §4, §5, §3, §6

Sequence of CYP3A4 (P08684 whole entry): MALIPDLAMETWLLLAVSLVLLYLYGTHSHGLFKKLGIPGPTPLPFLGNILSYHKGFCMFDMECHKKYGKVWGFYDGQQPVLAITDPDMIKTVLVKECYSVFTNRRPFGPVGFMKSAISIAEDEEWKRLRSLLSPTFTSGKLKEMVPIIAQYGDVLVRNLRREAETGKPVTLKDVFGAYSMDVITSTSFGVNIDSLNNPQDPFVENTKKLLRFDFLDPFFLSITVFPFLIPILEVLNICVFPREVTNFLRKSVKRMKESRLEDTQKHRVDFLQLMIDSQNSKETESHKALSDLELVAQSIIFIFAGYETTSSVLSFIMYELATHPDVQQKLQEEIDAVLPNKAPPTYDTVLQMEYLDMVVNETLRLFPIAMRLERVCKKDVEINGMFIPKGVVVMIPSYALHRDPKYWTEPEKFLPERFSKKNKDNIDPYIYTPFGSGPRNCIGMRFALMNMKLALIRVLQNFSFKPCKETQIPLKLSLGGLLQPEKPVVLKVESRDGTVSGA
Sequence of CYP2C9 (P11712 whole entry): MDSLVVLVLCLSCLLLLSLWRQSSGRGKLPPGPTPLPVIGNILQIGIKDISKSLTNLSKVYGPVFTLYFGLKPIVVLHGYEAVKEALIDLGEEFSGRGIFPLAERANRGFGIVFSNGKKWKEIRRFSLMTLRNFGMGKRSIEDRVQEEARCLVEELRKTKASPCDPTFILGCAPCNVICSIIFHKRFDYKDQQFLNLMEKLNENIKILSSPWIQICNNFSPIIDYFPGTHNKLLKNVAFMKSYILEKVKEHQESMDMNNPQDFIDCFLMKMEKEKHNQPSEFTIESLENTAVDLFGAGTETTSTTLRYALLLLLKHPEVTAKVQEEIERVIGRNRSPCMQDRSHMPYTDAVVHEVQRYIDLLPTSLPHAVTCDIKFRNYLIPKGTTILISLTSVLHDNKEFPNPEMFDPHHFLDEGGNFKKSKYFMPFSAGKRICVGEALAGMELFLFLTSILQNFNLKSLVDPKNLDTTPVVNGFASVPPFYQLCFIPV
Sequence of CYP2D6 (P10635 whole entry): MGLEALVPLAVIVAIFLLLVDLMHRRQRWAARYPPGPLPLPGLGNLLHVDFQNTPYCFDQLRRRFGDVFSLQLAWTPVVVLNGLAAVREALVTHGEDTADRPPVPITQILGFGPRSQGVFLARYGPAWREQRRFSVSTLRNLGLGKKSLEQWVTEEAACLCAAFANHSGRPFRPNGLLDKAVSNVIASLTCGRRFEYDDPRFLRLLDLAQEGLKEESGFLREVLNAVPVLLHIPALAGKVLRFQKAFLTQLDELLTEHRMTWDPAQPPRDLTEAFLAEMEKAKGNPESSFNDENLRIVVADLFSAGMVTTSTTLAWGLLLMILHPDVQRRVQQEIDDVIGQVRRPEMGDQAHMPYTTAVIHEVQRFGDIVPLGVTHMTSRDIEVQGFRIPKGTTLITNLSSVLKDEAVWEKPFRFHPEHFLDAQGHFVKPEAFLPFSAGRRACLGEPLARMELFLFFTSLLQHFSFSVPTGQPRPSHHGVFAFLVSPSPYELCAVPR

CC(CCC(O)C(C)(O)CO)C1CCC2(C)C3=C(C(=O)CC12C)C1(C)CCC(=O)C(C)(C)C1CC3 (stereo not drawn) [Compound 25, ganodrol C]
activity at 30 min (CYP2A6): 70.1 ± 2.15% | IC50 (CYP3A4; IC50 against CYP 3A4, substrate midazolam 5 μM, HLM): 4.78 µM | IC50 (CYP3A4; IC50 against metabolism of diltiazem mediated by CYP3A4, substrate diltiazem 10 μM, 30 min): 5.12 ± 0.56 µM | IC50 (CYP3A4; IC50 against metabolism of imatinib mediated by CYP3A4, substrate imatinib 5 μM, 30 min): 7.57 ± 0.2 µM | IC50 (CYP3A4; IC50 against metabolism of simvastatin mediated by CYP3A4, substrate simvastatin 10 μM, 30 min): 4.5 ± 0.48 µM | activity at 30 min (CYP3A4; human, human liver microsomes, pH 7.4, probe midazolam 5 μM, Residual activity (%) CYP3A4, HLM 0.5 mg/mL, midazolam 5 μM, 30 min): 30.1 ± 1.54% | IC50 at 30 min (CYP3A4, CYP2B6, CYP2C9): 4.5 to 25.3 µM | activity at 30 min (CYP2D6): 68.22 ± 0.44% | IC50 (CYP2C9; IC50 against metabolism of glibenclamide mediated by CYP2C9, substrate glibenclamide 50 μM, 30 min): 10.3 ± 0.12 µM | IC50 (CYP2C9; IC50 against metabolism of glimepiride mediated by CYP2C9, substrate glimepiride 50 μM, 30 min): 12.3 ± 0.43 µM | IC50 (CYP2C9; IC50 against metabolism of valsartan mediated by CYP2C9, substrate valsartan 30 μM, 30 min): 14.3 ± 1.14 µM | IC50 at 30 min (CYP2C9; human, human liver microsomes, pH 7.4, probe diclofenac 4 μM, IC50 against CYP 2C9, substrate diclofenac 4 μM, HLM): 11.4 µM | activity at 30 min (CYP2C9; human, human liver microsomes, pH 7.4, probe diclofenac 4 μM, Residual activity (%) CYP2C9, HLM 0.5 mg/mL, diclofenac 4 μM, 30 min): 32 ± 2.74% | IC50 (CYP2B6; IC50 against CYP 2B6, substrate bupropion 75 μM, HLM): 25.3 ± 3.7 µM | IC50 (CYP2B6; IC50 against metabolism of artemisinin mediated by CYP2B6, substrate artemisinin 10 μM, 30 min): 21.5 ± 3.44 µM | IC50 (CYP2B6; IC50 against metabolism of efavirenz mediated by CYP2B6, substrate efavirenz 20 μM, 30 min): 24.3 ± 3.05 µM | IC50 (CYP2B6; IC50 against metabolism of sertraline mediated by CYP2B6, substrate sertraline 5 μM, 30 min): 25.1 ± 2.86 µM | activity at 30 min (CYP2B6; human, human liver microsomes, pH 7.4, probe bupropion 75 μM, Residual activity (%) CYP2B6, HLM 0.5 mg/mL, bupropion 75 μM, 30 min): 56.8 ± 2.04%
